The record followed here is US6884810B2, “Benzimidazole derivatives” (Zeria Pharmaceutical Co., Ltd., priority 2001, dated 2005).

For one series, the target named is T1, H+/K+-ATPase (Sus scrofa, UniProt P19156).
T1 construct: The mucous membrane layer was homogenized in Tris-HCl buffer; from tissue; host or cells: pig stomach body, mucous membrane layer, membrane fraction from a sucrose interface
As to the kind of experiment: Proton pump inhibitory action: activity of inhibiting H+/K+-ATPase (at pH 1). Type of series: biochemical. Particulars: pig gastric mucosa enzyme sample; test compounds pretreated in hydrochloric acid solution pH 1 (50% DMSO) for 15 minutes; read-out: Proton pump inhibitory action [IC50 (μmol/L)]. An excerpt: (Proton Pump Inhibitory Action)
(1) Preparation of Enzyme Sample (H^+/K^+-ATPase)
The stomach body removed from a pig, which had been stored in a frozen state, was separated into a muscle layer and a mucous membrane layer. The mucous membrane layer was homogenized in Tris-HCl buffer (20 mmol/L, pH 7.4) having a volume 5 times that of the layer and containing sucrose (0.25 mol/L) and EGTA (1 mmol/L) (hereinafter the mixture is referred to as Tris-HCl buffer) in a mixer. The homogenate was subjected to centrifugation (9,000×g, 30 minutes). The supernatant was softly placed on 8 mL Tris-HCl buffer (20 mmol/L, pH 7.4) containing 30% sucrose and 1 mmol/L EGTA. The mixture was subjected to ultracentrifugation at 100,000×g for 60 minutes. The interface fraction obtained through centrifugation was subjected to centrifugation (113,000×g, 60 minutes) twice. Pellet was suspended in Tris-HCl buffer, and the suspension was homogenized at low speed. The resultant homogenate served as an enzyme sample of interest and was stored at −80° C. The protein content of the sample was quantitated through use of a BCA protein assay reagent in accordance with a method described by Smith et al. (Anal. Biochem., 150, 76-85 (1985)). All these steps were performed under cooling with an ice bath.
(2) Activity of inhibiting H^+/K^+-ATPase (at pH 1)
Activity of inhibiting H^+/K^+-ATPase was measured in accordance with a method described in Biochem. Biophys. Res. Commun., 40, 880-886 (1970). Specifically, ATP was employed as a substrate, and inorganic phosphate, which is a resultant degradation product, was quantitated. In consideration of the solubility of test compounds, the test compounds were preliminarily treated with a hydrochloric acid solution (containing 50% DMSO, 1×10^−1 mol/L, pH 1). Each of the test compounds having different concentrations was added to the hydrochloric acid solution to thereby yield a 1,000—fold dilution, and thereafter, the diluted compound was allowed to stand for 15 minutes at room temperature. After these preliminary remedies, a 10 μL solution that had undergone the above preliminary remedies were added to 840 μL Tris-acetate buffer (40 mmol/L, pH 7.5, containing 2 mmol/L MgCl2, may be referred to as TE buffer) containing or not containing 20 mmol/L KCl. Subsequently, a 100 μL enzyme solution (5 μg protein) diluted with the TE buffer was added. Incubation was performed for 30 minutes at 37° C. Thereafter, a 50 μL ATP solution (40 mmol/L) which was dissolved in TE buffer not containing KCl was added to initiate enzyme reaction (total volume: 1 mL, ATP final concentration: 2 mmol/L). Incubation was performed for 30 minutes at 37° C. Subsequently, ice-cold 12% trichloroacetic acid (2 mL) was added, to thereby stop the enzyme reaction. A molybdenum reagent (1 mL, 3.75% ammonium molybdate/1.5 mol/L sulfuric acid) and butyl acetate (5 mL) were added, followed by mixing under vigorous shaking for 5 minutes. The absorption of the butyl acetate layer was measured at 310 nm. A standard curve was determined on the basis of absorption obtained through the similar procedure by use of KH2PO4 at different concentrations dissolved in 8% TCA solution, and inorganic phosphate content was calculated. Samples to be measured were prepared in duplicate. The measurements were averaged, and residual activity was obtained from the difference between the inorganic phosphate content as determined in a sample containing KCl and that as determined in a sample not containing KCl. Percentage inhibition activity was calculated with respect to the activity obtained from a control sample (DMSO), which was considered 100%. As the inhibitory potency of each test compound, IC50 values were computed and shown. All the test compounds were dissolved in dimethyl sulfoxide immediately before use.

Another series deals with T2, CYP2C19 (Homo sapiens, UniProt P33261).
T2 construct: purchased Sumitomo Chemical Co., Ltd; host or cells: yeast (microsomes)
T2 sequence (P33261 whole entry): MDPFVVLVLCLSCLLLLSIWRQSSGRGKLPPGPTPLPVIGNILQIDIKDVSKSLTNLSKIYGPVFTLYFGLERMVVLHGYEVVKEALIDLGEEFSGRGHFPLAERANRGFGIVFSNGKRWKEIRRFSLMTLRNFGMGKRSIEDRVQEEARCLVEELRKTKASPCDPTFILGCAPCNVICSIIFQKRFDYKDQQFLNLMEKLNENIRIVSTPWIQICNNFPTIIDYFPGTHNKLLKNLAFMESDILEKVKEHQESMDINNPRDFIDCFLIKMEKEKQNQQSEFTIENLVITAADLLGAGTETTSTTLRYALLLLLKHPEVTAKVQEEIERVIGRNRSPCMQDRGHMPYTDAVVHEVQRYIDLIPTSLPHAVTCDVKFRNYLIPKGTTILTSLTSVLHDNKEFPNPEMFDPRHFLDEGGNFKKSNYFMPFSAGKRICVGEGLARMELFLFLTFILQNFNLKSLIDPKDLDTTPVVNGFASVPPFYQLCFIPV
As to the kind of experiment: Human CYP2C19 activity inhibition test (S-(+)-mephenytoin to 4'-hydroxymephenytoin). Particulars: human, pH 7.4, probe S-(+)-mephenytoin (to 4'-hydroxymephenytoin), test compound 10 μM; human CYP2C19 yeast expression system microsome; 4'-hydroxymephenytoin generated vs control; read-out: CYP2C19 residual activity (%). Type of series: in vitro ADME. On the procedure: (Human CYP2C19 Activity Inhibition Test)
CYP2C19 specifically participates in the metabolism reaction from S-(+)-mephenytoin to 4′-hydroxymephenytoin. Therefore, by use of an expression system CYP2C19, the production amount (concentration) of 4′-hydroxymephenytoin, serving as an index for CYP2C19 activity, was determined, whereby the inhibitory action of respective test substances was investigated.
(a) Metabolizing Activity Test
A solution of S-(+)-mephenytoin in methanol (125 μmol/L, 50 μL) and a solution of a test substance in methanol (25 μmol/L, 0, 10, 100, or 200 μL) were placed in a 10-mL glass test tube. The solvent was removed under a nitrogen gas at 40° C. A 75 μL mixture of 0.5M phosphate buffer (pH 7.4)-0.5 mM EDTA (20:10), 140 μL purified water, and 10 μL human CYP2C19 yeast expression system microsome (purchased from Sumitomo Chemical Co., Ltd.) were added.
Incubation was performed for 10 minutes at 37° C. Subsequently, aqueous 12% perchloric acid solution (50 μL) was added, to thereby stop the reaction.
After the reaction was stopped, an internal standard substance (I.S.) methyl p-hydroxybenzoate (100 μg/ mL, 50 μL), and diethyl ether (2 mL) were added. The mixture was shaken for 10 minutes, followed by centrifugation at 3,000 rpm for 10 minutes. The organic layer was separated, and the solvent was removed under a nitrogen gas at 40° C. The residue was dissolved in a 200 μL mobile phase, and the mixture was subjected to analysis by high performance liquid chromatography (HPLC).
In order to generate a calibration curve, the general procedure of the above process was repeated by use of 4′-hydroxymephenytoin solution instead of the S-(+)-mephenytoin solution. Quantitation was performed on the basis of the peak area ratio of 4′-hydroxymephenytoin to I.S. The amount of 4′-hydroxymephenytoin generated in the control sample was compared with that generated in the present of a test compound, and the results of comparison were used as an activity index.
HPLC was performed under the conditions described below (HPLC conditions A or HPLC conditions B).

The structures appear in SMILES notation.

T1 sequence (P19156 2-1034 limits assumed): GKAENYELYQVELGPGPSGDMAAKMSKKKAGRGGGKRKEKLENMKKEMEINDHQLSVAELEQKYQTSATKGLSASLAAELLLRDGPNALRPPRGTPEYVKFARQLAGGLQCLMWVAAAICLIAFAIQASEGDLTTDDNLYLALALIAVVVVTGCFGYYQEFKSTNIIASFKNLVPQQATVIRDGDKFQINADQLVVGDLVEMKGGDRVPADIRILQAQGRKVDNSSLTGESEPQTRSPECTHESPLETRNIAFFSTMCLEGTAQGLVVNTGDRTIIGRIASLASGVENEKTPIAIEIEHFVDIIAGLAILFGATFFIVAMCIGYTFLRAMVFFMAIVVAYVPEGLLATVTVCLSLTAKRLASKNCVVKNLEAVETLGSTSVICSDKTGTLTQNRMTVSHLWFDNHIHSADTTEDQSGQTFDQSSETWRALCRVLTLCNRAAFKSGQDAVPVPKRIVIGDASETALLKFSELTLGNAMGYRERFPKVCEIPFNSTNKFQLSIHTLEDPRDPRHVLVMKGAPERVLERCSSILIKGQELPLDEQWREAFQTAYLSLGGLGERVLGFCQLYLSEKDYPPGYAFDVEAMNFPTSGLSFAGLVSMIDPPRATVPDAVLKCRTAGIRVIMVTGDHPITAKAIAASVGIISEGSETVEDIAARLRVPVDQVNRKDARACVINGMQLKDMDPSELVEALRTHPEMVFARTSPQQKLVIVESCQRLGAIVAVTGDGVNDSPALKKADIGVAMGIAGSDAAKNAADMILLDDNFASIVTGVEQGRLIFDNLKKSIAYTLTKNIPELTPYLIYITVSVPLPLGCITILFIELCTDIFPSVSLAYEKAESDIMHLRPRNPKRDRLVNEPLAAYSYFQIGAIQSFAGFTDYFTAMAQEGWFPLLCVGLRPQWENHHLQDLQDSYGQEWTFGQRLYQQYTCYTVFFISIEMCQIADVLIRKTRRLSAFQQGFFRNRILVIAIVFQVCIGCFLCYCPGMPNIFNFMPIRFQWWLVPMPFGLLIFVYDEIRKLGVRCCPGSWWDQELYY
T1 sequence (P18434 whole entry partner): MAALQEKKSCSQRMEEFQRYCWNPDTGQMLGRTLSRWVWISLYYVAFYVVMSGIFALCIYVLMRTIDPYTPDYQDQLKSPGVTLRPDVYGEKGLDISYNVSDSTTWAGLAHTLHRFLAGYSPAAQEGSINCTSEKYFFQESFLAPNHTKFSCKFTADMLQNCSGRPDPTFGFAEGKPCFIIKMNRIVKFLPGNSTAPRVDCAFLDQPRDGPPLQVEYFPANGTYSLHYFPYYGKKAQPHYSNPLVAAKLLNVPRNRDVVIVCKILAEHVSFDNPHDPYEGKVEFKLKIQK

For the molecule `COc1c(OCCOCC(F)(F)F)ccnc1C[S+]([O-])c1nc2ccccc2[nH]1` (single isomer, unassigned; (+)) [Example 3(2), (+)-2-{3-methoxy-4-[2-(2,2,2-trifluoroethoxy)ethoxy]pyridin-2-yl-methylsulfinyl}-1H-benzimidazole], the IC50 on H+/K+-ATPase was found to be 4.05 µmol/L. Also, the activity at 10 min, 10 µM on CYP2C19 worked out at 98.3%.
Consider `COc1c(OCCCC(F)(F)F)ccnc1C[S+]([O-])c1nc2ccccc2[nH]1` (single isomer, unassigned; (-)) [Example 6(1), (−)-2-[3-methoxy-4-(4,4,4-trifluorobutoxy)pyridin-2-yl-methanesulfinyl]-1H-benzimidazole], for which the IC50 at H+/K+-ATPase was 2.5 µmol/L. In addition, at CYP2C19, the activity at 10 min, 10 µM is 66.4%.
In the same order, the values of `[O-][S+](Cc1cc(OCCCC(F)(F)F)ccn1)c1nc2ccccc2[nH]1` (single isomer, unassigned; (-)) [Example 10(2), (−)-2-[4-(4,4,4-trifluorobutoxy)pyridin-2-yl-methanesulfinyl]-1H-benzimidazole] are 3.03 µmol/L and 89.4%.
In the same order, the values of `[O-][S+](Cc1cc(OCCOCC(F)(F)F)ccn1)c1nc2ccccc2[nH]1` (single isomer, unassigned; (-)) [Example 13(3), (−)-2-{4-[2-(2,2,2-trifluoroethoxy)ethoxy]pyridin-2-yl-methanesulfinyl}-1H-benzimidazole] are 7.37 µmol/L and 98.6%.
On the same counts, the results for `COc1c(OCCCC(F)(F)F)ccnc1C[S+]([O-])c1nc2ccccc2[nH]1` (stereo not drawn) [Example 1(2), 2-[3-methoxy-4-(4,4,4-trifluorobutoxy)pyridin-2-yl-methylsulfinyl]-1H-benzimidazole] are 4.16 µmol/L and 71.2%.
Take `COc1c(OCCOCC(F)(F)F)ccnc1C[S+]([O-])c1nc2ccccc2[nH]1` (stereo not drawn) [Example 2(2), 2-{3-methoxy-4-[2-(2,2,2-trifluoroethoxy)ethoxy]pyridin-2-yl-methylsulfinyl}-1H-benzimidazole]: the IC50 at H+/K+-ATPase was determined as 3.37 µmol/L. Also, the activity at 10 min, 10 µM at CYP2C19 amounted to 66.5%.
In the same order, the values of `[O-][S+](Cc1cc(OCCCC(F)(F)F)ccn1)c1nc2ccccc2[nH]1` (stereo not drawn) [Example 9(3), 2-[4-(4,4,4-trifluorobutoxy)pyridin-2-yl-methanesulfinyl]-1H-benzimidazole] are 3.56 µmol/L and 76.1%.
On the same counts, the results for `COc1ccc2nc([S@@+]([O-])Cc3ncc(C)c(OC)c3C)[nH]c2c1` [esomeprazole, reference compound] are 2.06 µmol/L and 35.4%.
In the same order, the values of `Cc1c(OCC(F)(F)F)ccnc1C[S+]([O-])c1nc2ccccc2[nH]1` (stereo not drawn) [lansoprazole, reference compound] are 1.61 µmol/L and 8.7%.
Regarding `COc1ccc2[nH]c([S+]([O-])Cc3ncc(C)c(OC)c3C)nc2c1` (stereo not drawn) [omeprazole, reference compound], on H+/K+-ATPase, the IC50 came out at 1.01 µmol/L. In addition, at CYP2C19, the activity at 10 min, 10 µM is 18.4%.
Consider `COc1ccnc(C[S+]([O-])c2nc3ccc(OC(F)F)cc3[nH]2)c1OC` (stereo not drawn) [pantoprazole, reference compound], for which the IC50 on H+/K+-ATPase was 5.46 µmol/L. For the same molecule, the activity at 10 min, 10 µM at CYP2C19 was found to be 33.1%.
In the same order, the values of `COCCCOc1ccnc(C[S+]([O-])c2nc3ccccc3[nH]2)c1C` (stereo not drawn) [rabeprazole, reference compound] are 1.61 µmol/L and 39.8%.
